How the values were obtained:
Assay in all cases: Western blot dose-response degradation in homozygous HiBiT-BromoTag-BRD4 HEK293 cells
[1] = tested on: BromoTag-BRD4 (BRD4^Long); assay type: cell-based, human; conditions: for pDC50 BRD4Long: homozygous BromoTag-BRD4 HEK293 cells (Table S8)
Protocol: (§1) Cell Culture HEK293 cells were obtained from ATCC. HEK293 was cultured in DMEM supplemented with 10% (v/v) fetal bovine serum (FBS), 1% […] and 1% (v/v) penicillin/streptomycin (pen/strep) at 37 °C, 5% CO2, and 95% humidity.
(§2) To perform the single gRNA Cas9 CRISPR KI of BromoTag into BRD4 in HEK293. HEK293 cells were plated at a density of 5 × 10^5 cells into individual wells of a six-well plate in 1 mL of DMEM and left overnight to adhere to the plate. The cells were subsequently transfected the following day using GeneJuice lipofectamine reagent simultaneously with a custom donor vector pMK-RQ containing 500bp BRD4 homology arms on either side of an eGFP-IRES-HiBiT-BromoTag and two individual pBABED vector harboring U6-sgRNA and puromycin expression cassettes containing two BRD4 targeting gRNA sequences: […] and […]. The construction of these plasmids was performed by Thomas Macartney of the MRC-PPU CRISPR services. The following day cells were washed with PBS before fresh DMEM media was applied cells were left to recover in DMEM for a further 4 days. Cells were subsequently FACS sorted for GFP expression and expanded from single cells. HEK293 clones were validated for eGFP-IRES-HiBIT-BromoTag-BRD4 integration via WB, junction PCR and sequencing.
(§3) Dose–response degradation assay 97 of was performed on the genotype verified eGFP-IRES-HiBIT-BromoTag-BRD4 homozygous HEK293 cell lines. The cells were plated at a density of 5 × 10^5 cells per well of a six well plate a day prior to initiation of the experiment. 97 was dissolved into a 10 mM concentrated stock solution in DMSO from which 97 was further diluted to a working concentration range of 10 μM to 10 pM in DMEM and was subsequently added to cells. Additional controls including, vehicle, AGB1 (1 μM) and cis-AGB1 (1 μM) were similarly added to cells alongside 97 treatments. Cells were left to incubate with compound for 4 h at 37 °C, 5% CO2, and 95% humidity. Cells were then subsequently washed twice with PBS before being harvested in RIPA buffer supplemented with protease inhibitor cocktail and Benzonase Nuclease before being store at −20 °C.
Total protein quantity was determined using the BCA protein assay. Protein concentration was determined using the BCA assay. Samples were then prepared in LDS buffer and subsequently loaded onto NuPAGE 4–12% Bis-Tris Midi gels, followed by the transfer of the proteins onto nitrocellulose membranes. The membranes were blocked for 1 h prior to incubation with the primary antibodies using 5% Milk TBST. […] All Western blots were analyzed for band intensities using Image Lab (Bio-Rad). The data extracted from these blots were then plotted and analyzed using Prism (v. 10.2.2, GraphPad). […]

[2] = molecular target: T1, BRD2 (Homo sapiens, UniProt P25440); assay type: cell-based
T1 construct: HiBiT, is appended to the N-terminus of endogenous BRD2, BRD3, and BRD4; endogenous in cells
Protocol: as §1, §2, §3
(§4) Total protein quantity was determined using the BCA protein assay. Protein concentration was determined using the BCA assay. Samples were then prepared in LDS buffer and subsequently loaded onto NuPAGE 4–12% Bis-Tris Midi gels, followed by the transfer of the proteins onto nitrocellulose membranes. The membranes were blocked for 1 h prior to incubation with the primary antibodies using 5% Milk TBST. Membranes were incubated at 4 °C in either BRD4(Ab128874), BRD3(Ab50818) or BRD2(Ab139690) primary antibody overnight. Following overnight incubation, the membranes were incubated with complementary IRDye 800CW secondary antibodies and a hFAB Rhodamine Anti-Tubulin Primary Antibody (loading control) for 1 h and then imaged with a Bio-Rad imager. All Western blots were analyzed for band intensities using Image Lab (Bio-Rad). The data extracted from these blots were then plotted and analyzed using Prism (v. 10.2.2, GraphPad). All Western blotting figures were developed in Adobe Illustrator.

[3] = molecular target: T2, BRD3 (Homo sapiens, UniProt Q15059); assay type: cell-based
T2 construct: HiBiT, is appended to the N-terminus of endogenous BRD2, BRD3, and BRD4; endogenous in cells
Protocol: as §1, §2, §3, §4

[4] = molecular target: T3, BromoTag-BRD4 (BRD4^Short) (Homo sapiens, UniProt O60885, L387A); assay type: cell-based
T3 construct: homozygous endogenous HiBiT-BromoTag-BRD4 HEK293 cell line; endogenous in cells; host or cells: HEK293, homozygous CRISPR knock-in eGFP-IRES-HiBiT-BromoTag-BRD4
Protocol: as §1, §2, §3, §4

[5] = molecular target: CRBN (Homo sapiens, UniProt Q96SW2); assay type: cell-based; set-up: Western blot data for BET, CRBN and VHL protein levels; endogenous in cells; host or cells: HEK293 (ATCC)
Protocol: as §1, §2
Dose–response degradation assay 97 of was performed on the genotype verified eGFP-IRES-HiBIT-BromoTag-BRD4 homozygous HEK293 cell lines. The cells were plated at a density of 5 × 10^5 cells per well of a six well plate a day prior to initiation of the experiment. 97 was dissolved into a 10 mM concentrated stock solution in DMSO from which 97 was further diluted to a working concentration range of 10 μM to 10 pM in DMEM and was subsequently added to cells. […]
Total protein quantity was determined using the BCA protein assay. Protein concentration was determined using the BCA assay. […] All Western blots were analyzed for band intensities using Image Lab (Bio-Rad). The data extracted from these blots were then plotted and analyzed using Prism (v. 10.2.2, GraphPad). […]

[6] = HiBiT-BromoTag-BRD4 HEK293, 4 hours (Figure 12)
[7] = homozygous BromoTag-BRD4 HEK293 cells (Table S8)
[8] = HiBiT-BromoTag-BRD4 HEK293, 4 hours, n = 1 (Figure 12)

Chain of CRBN (Q96SW2 whole entry): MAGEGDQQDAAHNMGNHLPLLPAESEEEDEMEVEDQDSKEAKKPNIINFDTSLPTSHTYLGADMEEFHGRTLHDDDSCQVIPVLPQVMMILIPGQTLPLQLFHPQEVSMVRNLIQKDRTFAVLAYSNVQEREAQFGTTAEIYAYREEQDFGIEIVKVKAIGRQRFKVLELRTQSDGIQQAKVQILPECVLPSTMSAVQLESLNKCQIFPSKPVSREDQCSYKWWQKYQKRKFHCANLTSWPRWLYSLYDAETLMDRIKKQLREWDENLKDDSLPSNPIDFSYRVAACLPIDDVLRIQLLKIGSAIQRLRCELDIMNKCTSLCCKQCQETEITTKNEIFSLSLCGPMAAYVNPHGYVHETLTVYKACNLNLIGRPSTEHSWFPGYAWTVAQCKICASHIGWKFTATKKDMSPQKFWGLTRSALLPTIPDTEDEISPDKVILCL
T1 sequence (P25440 whole entry): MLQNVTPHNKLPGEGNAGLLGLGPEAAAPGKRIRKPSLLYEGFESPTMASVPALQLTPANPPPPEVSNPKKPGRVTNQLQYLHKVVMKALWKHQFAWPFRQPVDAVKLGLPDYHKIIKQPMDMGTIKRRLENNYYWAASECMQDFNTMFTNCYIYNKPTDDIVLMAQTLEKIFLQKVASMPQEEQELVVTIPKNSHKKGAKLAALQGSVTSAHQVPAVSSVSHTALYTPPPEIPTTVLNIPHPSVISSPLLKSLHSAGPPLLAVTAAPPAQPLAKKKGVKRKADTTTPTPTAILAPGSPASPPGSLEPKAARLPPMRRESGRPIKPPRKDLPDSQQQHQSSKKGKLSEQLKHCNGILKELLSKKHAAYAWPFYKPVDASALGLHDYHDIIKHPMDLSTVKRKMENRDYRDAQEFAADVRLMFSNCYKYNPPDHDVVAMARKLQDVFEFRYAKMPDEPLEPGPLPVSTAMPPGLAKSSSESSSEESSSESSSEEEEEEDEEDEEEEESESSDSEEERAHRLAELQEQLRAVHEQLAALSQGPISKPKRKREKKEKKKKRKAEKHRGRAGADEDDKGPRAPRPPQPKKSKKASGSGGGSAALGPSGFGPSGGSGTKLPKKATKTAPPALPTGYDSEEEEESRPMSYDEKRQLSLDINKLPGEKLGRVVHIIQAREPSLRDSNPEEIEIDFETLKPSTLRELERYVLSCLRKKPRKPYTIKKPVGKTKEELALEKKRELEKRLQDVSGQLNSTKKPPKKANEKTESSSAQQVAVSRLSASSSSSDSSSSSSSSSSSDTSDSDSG
T2 sequence (Q15059 whole entry): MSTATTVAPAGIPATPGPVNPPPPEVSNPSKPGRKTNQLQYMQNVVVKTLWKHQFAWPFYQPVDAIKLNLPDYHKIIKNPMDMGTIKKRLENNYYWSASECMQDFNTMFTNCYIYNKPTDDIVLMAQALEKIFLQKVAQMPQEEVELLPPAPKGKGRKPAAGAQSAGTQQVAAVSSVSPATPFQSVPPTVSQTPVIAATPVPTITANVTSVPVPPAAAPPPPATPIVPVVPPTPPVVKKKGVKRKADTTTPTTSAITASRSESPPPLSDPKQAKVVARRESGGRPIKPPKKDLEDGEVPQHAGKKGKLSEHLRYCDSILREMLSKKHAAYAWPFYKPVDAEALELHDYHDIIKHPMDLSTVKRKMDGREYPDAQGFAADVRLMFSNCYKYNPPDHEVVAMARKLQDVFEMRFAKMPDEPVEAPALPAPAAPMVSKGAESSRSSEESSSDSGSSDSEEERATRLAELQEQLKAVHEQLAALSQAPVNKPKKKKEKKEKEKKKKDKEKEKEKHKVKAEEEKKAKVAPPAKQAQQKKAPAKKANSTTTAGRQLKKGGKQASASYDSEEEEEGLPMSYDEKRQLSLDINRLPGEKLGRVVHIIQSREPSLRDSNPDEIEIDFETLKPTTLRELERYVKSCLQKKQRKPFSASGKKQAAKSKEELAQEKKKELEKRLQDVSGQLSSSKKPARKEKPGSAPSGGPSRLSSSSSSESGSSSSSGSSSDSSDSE

DC50 [1, 6] [nM]	pDC50 BRD4Long [1]	selectivity window of BromoTag-BRD4 degradation over BRD2 ([2]; DC50 ratio) [fold]	DC50 [2, 6] [nM]	Dmax [2, 6] [%]	Dmax [2, 7] [%]	selectivity window of BromoTag-BRD4 degradation over BRD3 ([3]; DC50 ratio) [fold]	DC50 [3, 6] [nM]	Dmax [3, 6] [%]	pDC50 BRD3 [3, 7]	DC50 [4, 6] [nM]	Dmax [4, 6] [%]	pDC50 BRD4Short [4, 7]	fold more potent degradation of CRBN than 27 ([5]; DC50 2.1 nM vs 75 nM) [fold]	DC50 [5, 8] [nM]	Dmax [5, 8] [%]	Dmax % BRD4Short [4, 7] [%]	SMILES	Dmax BRD4^Long [1, 6] [%]
0.12	9.9 ± 0.6	6000	770	50	56	250	33	79	7.5 ± 0.4	0.14	86	9.9 ± 0.1	~35	2.1	77	–	CC[C@@H](C(=O)OCCOCCOCCOCC(C)(COCCOCCOCCNc1cc2c(cc1F)C(=O)N(C1CCC(=O)NC1=O)C2=O)COCC(=O)N[C@H](C(=O)N1C[C@H](O)C[C@H]1C(=O)N[C@@H](C)c1ccc(-c2scnc2C)cc1)C(C)(C)C)[C@@H]1N=C(c2ccc(Cl)cc2)c2c(sc(C)c2C)-n2c(C)nnc21 (mixture of isomers) [AB3145 (97), (17S)-11-((2-(2-(2-((2-(2,6-dioxopiperidin-3-yl)-6-fluoro-1,3-dioxoisoindolin-5-yl)amino)ethoxy)ethoxy)ethoxy)methyl)-17-((2S,4R)-4-hydroxy-2-(((S)-1-(4-(4-methylthiazol-5-yl)phenyl)ethyl)carbamoyl)pyrrolidine-1-carbonyl)-11,18,18-trimethyl-15-oxo-3,6,9,13-tetraoxa-16-azanonadecyl (2R)-2-((S)-4-(4-chlorophenyl)-2,3,9-trimethyl-6H-thieno[3,2-f][1,2,4]triazolo[4,3-a][1,4]diazepin-6-yl)butanoate]	85
–	8.0 ± 0.2	–	–	–	–	–	–	–	–	–	–	8.6 ± 0.1	–	–	–	11	CC[C@@H](C(=O)OCCOCCOCCOCC(=O)N[C@H](C(=O)N1C[C@H](O)C[C@H]1C(=O)NCc1ccc(-c2scnc2C)cc1)C(C)(C)C)[C@@H]1N=C(c2ccc(Cl)cc2)c2c(sc(C)c2C)-n2c(C)nnc21 [AGB1, reference compound]	–

— paper PMC11638965, “Leveraging Dual-Ligase Recruitment to Enhance Protein Degradation via a Heterotrivalent Proteolysis Targeting Chimera” (Journal of the American Chemical Society, 2024)
